From the supplement of paper PMC11061612

Columns and labels:
[1] = system: NCI-H211 (Small Cell Lung Carcinoma); assay: combination Emax (second highest fraction inhibited in the dose matrix, 72 h); higher = more inhibition; extreme values may be limits of the assay
How it was run: (§1)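 Cell lines in DMEM/F12 or RPMI with 10% FBS were plated in 1536-well plates, held 24 hours at 37°C, 5% CO2, then given two-drug dose matrices for 72 hours (DMSO typically 0.2%). Viability was read by CellTiter-Glo 2.0 luminescence and scaled as inhibition from 0 (vehicle wells) to 1 (blank wells). Combination Emax is the second-highest inhibition in the matrix; Bliss excess is observed combination effect minus expected EA + EB − EA·EB, EA and EB being single-agent effects.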

[2] = system: SW1783 (Low Grade Glioma); assay: as above
How it was run: as §1

[3] = system: KARPAS-1106P (B-Cell Non-Hodgkin's Lymphoma); assay: as above
How it was run: as §1

[4] = system: TE-5 (Esophageal Squamous Cell Carcinoma); assay: as above
How it was run: as §1

[5] = system: LS-513 (Colorectal Carcinoma); assay: as above
How it was run: as §1

[6] = system: KARPAS-620 (Plasma Cell Myeloma); assay: as above
How it was run: as §1

[7] = system: NCI-H2595 (Mesothelioma); assay: as above
How it was run: as §1

[8] = system: DB (B-Cell Non-Hodgkin's Lymphoma); assay: as above
How it was run: as §1

[9] = system: SW1990 (Pancreatic Carcinoma); assay: as above
How it was run: as §1

[10] = system: SN12C (Kidney Carcinoma); assay: as above
How it was run: as §1

[11] = system: OCI-AML2 (Acute Myeloid Leukemia); assay: as above
How it was run: as §1

[12] = system: SK-N-FI (Neuroblastoma); assay: as above
How it was run: as §1

[13] = system: G-292-Clone-A141B1 (Osteosarcoma); assay: as above
How it was run: as §1

[14] = system: KARPAS-1106P (B-Cell Non-Hodgkin's Lymphoma); assay: Bliss excess, mean over the matrix (fraction); higher = more synergy
How it was run: as §1

[15] = system: IHH-4 (Thyroid Gland Carcinoma); assay: as above
How it was run: as §1

[16] = system: TE-5 (Esophageal Squamous Cell Carcinoma); assay: as above
How it was run: as §1

[17] = system: NCI-H1299 (Non-Small Cell Lung Carcinoma); assay: as above
How it was run: as §1

[18] = system: KARPAS-620 (Plasma Cell Myeloma); assay: as above
How it was run: as §1

[19] = system: SN12C (Kidney Carcinoma); assay: as above
How it was run: as §1

[20] = system: U-266 (Plasma Cell Myeloma); assay: as above
How it was run: as §1
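Throughout, for Bliss excess, mean over the matrix: after 72 h of two-drug dosing.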

SMILES | combination Emax [1] | combination Emax [2] | combination Emax [3] | combination Emax [4] | combination Emax [5] | combination Emax [6] | combination Emax [7] | combination Emax [8] | combination Emax [9] | combination Emax [10] | combination Emax [11] | combination Emax [12] | combination Emax [13] | Bliss excess [14] | Bliss excess [15] | Bliss excess [16] | Bliss excess [17] | Bliss excess [18] | Bliss excess [19] | Bliss excess [20]
O=C(c1cc(Cc2n[nH]c(=O)c3ccccc23)ccc1F)N1CCN(C(=O)C2CC2)CC1 [Olaparib] + COc1nnc2ccc(N3CCC(c4ccc(OCCN5CCN(C)C(=O)[C@H]5C)cc4)CC3)nn12 [AZD5153] (first compound max 10 µM, 7x7, partner max 1 µM) | 0.992 | 0.319 | 0.791 | 0.347 | 0.591 | 0.666 | 0.273 | 0.74 | 0.195 | 0.255 | 0.983 | 0.489 | 0.224 | -0.0162 | -0.0058 | -0.052 | -0.0826 | -0.0365 | -0.0222 | -0.0332
C[C@@H](Nc1cc(F)cc(F)c1)c1cc(C(=O)N(C)C)cc2c(=O)cc(N3CCOCC3)oc12 [AZD8186] + C1CN(CCC1(C(=O)N[C@@H](CCO)C2=CC=C(C=C2)Cl)N)C3=NC=NC4=C3C=CN4 [AZD5363] (first compound max 10 µM, 7x7, partner max 10 µM) | 0.406 | 0.479 | 0.755 | 0.35 | 0.534 | 0.767 | 0.24 | 0.0629 | 0.188 | 0.149 | 0.473 | 0.335 | 0.515 | -0.0234 | 0.0233 | 0.0152 | 0.0024 | 0.0152 | -0.0471 | -0.0427
Cc1c2c(nn1C)CSCc1cc(n(C)n1)CSc1cc(c3ccccc3c1)OCCCc1c(C(=O)O)n(C)c3c-2c(Cl)ccc13 [AZD5991] + CS(=O)(=O)CCNCc1ccc(-c2ccc3ncnc(Nc4ccc(OCc5cccc(F)c5)c(Cl)c4)c3c2)o1 [Lapatinib] (first compound max 1 µM, 7x7, partner max 10 µM) | 0.979 | 0.165 | 0.893 | 0.308 | 0.822 | 1 | 0.361 | 1 | 0.295 | 0.249 | 0.978 | 0.562 | 0.264 | 0.0482 | 0.011 | 0.0198 | -0.0243 | 0.0054 | 0.0035 | -0.0501
C[C@@H](Nc1cc(F)cc(F)c1)c1cc(C(=O)N(C)C)cc2c(=O)cc(N3CCOCC3)oc12 [AZD8186] + CC(=O)c1c(C)c2cnc(Nc3ccc(N4CCNCC4)cn3)nc2n(C2CCCC2)c1=O [Palbociclib] (first compound max 10 µM, 7x7, partner max 10 µM) | 0.754 | 0.617 | 0.791 | 0.394 | 0.584 | 0.775 | 0.303 | 0.601 | 0.267 | 0.281 | 0.834 | 0.43 | 0.428 | -0.04 | 0.125 | 0.0301 | 0.0316 | 0.15 | 0.0245 | -0.0285
N#Cc1cnc(Nc2cc(NC[C@H]3CNCCO3)c(C(F)(F)F)cn2)cn1 [SRA737] + O=c1[nH]cc(F)c(=O)[nH]1 [5-Fluorouracil] (first compound max 10 µM, 7x7, partner max 20 µM) | 0.8 | 0.318 | 0.881 | 0.24 | 0.644 | 0.414 | 0.132 | 0.236 | 0.515 | 0.0841 | 1 | 0.601 | 0.121 | 0.0407 | 0.098 | 0.0052 | -0.0191 | 0.0096 | -0.0474 | 0.0562
O=C(c1cc(Cc2n[nH]c(=O)c3ccccc23)ccc1F)N1CCN(C(=O)C2CC2)CC1 [Olaparib] + CC1(C)CCC(CN2CCN(c3ccc(C(=O)NS(=O)(=O)c4ccc(NCC5CCOCC5)c([N+](=O)[O-])c4)c(Oc4cnc5[nH]ccc5c4)c3)CC2)=C(c2ccc(Cl)cc2)C1 [Venetoclax] (first compound max 10 µM, 7x7, partner max 1 µM) | 0.99 | 0.0873 | 0.402 | 0.0752 | 0.18 | 0.872 | 0.109 | 0.849 | 0.179 | 0.206 | 0.99 | 0.0529 | 0.0374 | -0.0169 | -0.0118 | -0.0458 | -0.0527 | 0.003 | -0.0534 | 0.0388
CN(CCO)CC[C@H](CSc1ccccc1)Nc1ccc(S(=O)(=O)NC(=O)c2ccc(N3CCC([C@@H](O)c4ccccc4-c4ccc(Cl)cc4)CC3)cc2)cc1S(=O)(=O)C(F)(F)F [AZD4320] + CS(=O)(=O)CCNCc1ccc(-c2ccc3ncnc(Nc4ccc(OCc5cccc(F)c5)c(Cl)c4)c3c2)o1 [Lapatinib] (first compound max 1 µM, 7x7, partner max 10 µM) | 1 | 0.883 | 0.401 | 0.888 | 0.956 | 1 | 0.329 | 1 | 0.302 | 0.347 | 1 | 0.578 | 0.949 | -0.0212 | -0.0096 | 0.0542 | -0.0664 | 0.0697 | -0.0385 | -0.052
Cc1c2c(nn1C)CSCc1cc(n(C)n1)CSc1cc(c3ccccc3c1)OCCCc1c(C(=O)O)n(C)c3c-2c(Cl)ccc13 [AZD5991] + Nc1ccn([C@@H]2O[C@H](CO)[C@@H](O)C2(F)F)c(=O)n1 [Gemcitabine] (first compound max 1 µM, 7x7, partner max 0.3 µM) | 1 | 0.673 | 0.981 | 0.75 | 0.814 | 1 | 0.464 | 1 | 0.353 | 0.422 | 1 | 0.457 | 0.152 | -0.0216 | 0.0122 | 0.0112 | 0.006 | 0.031 | -0.0232 | 0.0379
